Legend:
hACAT1 = target: T1, hACAT1 (Homo sapiens, UniProt P35610); assay: Enzymatic assay hACAT1; assay type: biochemical
T1 sequence (P35610 1-550): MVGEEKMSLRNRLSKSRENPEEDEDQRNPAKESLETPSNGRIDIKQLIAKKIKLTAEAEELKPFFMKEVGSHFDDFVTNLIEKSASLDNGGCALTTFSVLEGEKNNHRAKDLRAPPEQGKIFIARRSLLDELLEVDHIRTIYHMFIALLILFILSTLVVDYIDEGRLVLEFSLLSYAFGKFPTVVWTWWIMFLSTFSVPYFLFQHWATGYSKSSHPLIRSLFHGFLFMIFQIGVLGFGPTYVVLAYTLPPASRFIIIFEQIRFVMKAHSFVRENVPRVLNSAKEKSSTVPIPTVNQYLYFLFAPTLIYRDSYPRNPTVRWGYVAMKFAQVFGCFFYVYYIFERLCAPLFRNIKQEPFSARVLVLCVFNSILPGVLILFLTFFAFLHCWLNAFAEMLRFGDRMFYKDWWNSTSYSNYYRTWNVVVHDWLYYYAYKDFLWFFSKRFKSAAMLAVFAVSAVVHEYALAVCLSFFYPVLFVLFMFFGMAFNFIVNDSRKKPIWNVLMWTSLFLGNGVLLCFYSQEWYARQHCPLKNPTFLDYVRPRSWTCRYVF
Excerpt: (§1) ACATs have sequence homology to DGAT-1 and play essential roles in cholesterol homeostasis. 17b was not explored in the enzymatic assays due to its poor pharmacokinetic profile.

hACAT2 = target: T2, hACAT2 (Homo sapiens, UniProt O75908); assay: Enzymatic assay hACAT2; assay type: biochemical
T2 sequence (O75908 1-522): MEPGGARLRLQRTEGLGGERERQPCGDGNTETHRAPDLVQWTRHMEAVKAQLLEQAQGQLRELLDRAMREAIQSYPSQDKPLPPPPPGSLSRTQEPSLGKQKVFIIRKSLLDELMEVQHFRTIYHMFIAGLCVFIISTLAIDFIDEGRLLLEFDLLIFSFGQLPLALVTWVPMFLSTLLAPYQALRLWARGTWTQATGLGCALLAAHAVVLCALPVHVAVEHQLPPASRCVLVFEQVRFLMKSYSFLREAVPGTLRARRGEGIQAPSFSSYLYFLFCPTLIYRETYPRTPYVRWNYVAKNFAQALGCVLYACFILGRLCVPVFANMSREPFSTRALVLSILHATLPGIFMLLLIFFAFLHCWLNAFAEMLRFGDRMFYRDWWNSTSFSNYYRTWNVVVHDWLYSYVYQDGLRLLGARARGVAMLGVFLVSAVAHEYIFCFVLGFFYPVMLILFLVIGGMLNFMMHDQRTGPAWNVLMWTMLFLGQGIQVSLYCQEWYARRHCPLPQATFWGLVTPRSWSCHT
Excerpt: as §1

## O=C([O-])C[C@H]1CC[C@@H](c2csc3c(-c4ccc(NC(=O)Nc5cccc(Cl)c5)cc4)ncnc32)CC1.[Na+] [Compound 17a, Sodium cis-2–(4–(4-(4-(3–(3-chlorophenyl)ureido)phenyl)thieno[3,2-d]pyrimidin-7-yl)cyclohexyl)acetate]
hACAT1
  IC50: > 10 µM
hACAT2
  IC50: > 10 µM

— publication PMC6882492, “Synthesis and biological evaluation of novel thienopyrimidine derivatives as diacylglycerol acyltransferase 1 (DGAT-1) inhibitors” (Journal of Enzyme Inhibition and Medicinal Chemistry, 2019)
